Results taken from a melting point compilation (Tetko et al.; mined from patent text by program, amines drawn as free bases though some values may be those of a salt).

| Compound | melting point |
| --- | --- |
| COc1ccc(S(=O)(=O)C(C)(Cc2ccc3ccccc3c2)C(=O)NO)cc1 (stereo not given) | 185 to 187 °C |
| Nc1cc2c(cc1C(=O)c1ccccc1)OCO2 | 160 to 161 °C |
| O=C1NCCNc2c1cccc2[N+](=O)[O-] | 191 to 195 °C |
| N#Cc1ccccc1OCCCN1CCC(C(c2ccc(F)cc2)c2ccc(F)cc2)CC1 | 88.5 to 90 °C |
| COC(=O)c1cc(N)nc(-c2ccc(Cl)c(F)c2F)n1 | 192 to 195 °C |
| OC(c1ccccc1)C1CCN(CCCc2ccccc2)CC1 (stereo not given) | 87 to 88 °C |
| CCC1CN(Cc2ccccc2)C(=O)C(=C2SC=CS2)C1=O (stereo not given) | 140 to 141 °C |
| CC(C)n1cc(C2(c3ccc(F)c(Br)c3)N=C(N)N(C)C2=O)cn1 (stereo not given) | 80 to 82 °C |
| Cc1oc(-c2ccccc2)nc1COc1ccc(Cn2cc(CCC(=O)O)c(Oc3ccc(C(F)(F)F)cn3)n2)cc1 | 107 to 108 °C |
| Cn1c2c(c(=O)n(-c3ccc(Cl)c(C(=O)OC(C)(C)C)c3)c1=O)CCC2 | 189 to 191 °C |
| NP(N)(=O)c1ccccc1 | 187 to 191 °C |
| CCOCc1nc2c(N)nc3cc(/C=C/C(=O)OC)ccc3c2n1CCCCN1CCCS1(=O)=O | 162 to 163 °C |
| O=C(NCCCCCCNC(=O)OC1CCCCC1)OC1CCCCC1 | 98 to 100 °C |
| O=C(c1ccccc1O)N1CCc2cc(S(=O)(=O)N3CC(c4ccccc4)NC3=O)ccc21 (stereo not given) | 221 °C |
| Nc1nc(N)c(-c2cccc(Cl)c2Cl)c(COc2ccccc2)n1 | 211 to 213 °C |
| CCc1cc(NC(=O)c2nnn(Cc3ccc(OC)cc3)n2)c(O)c(C(C)=O)c1 | 159 to 160 °C |
| CC(C)(C)OC(=O)NC(Cc1cnc2ccccc2c1)C(=O)O (stereo not given) | 159 to 160 °C |
| CCCCOc1ccc(C(=O)Nc2ccc3cc(CN4CCN(C)CC4)cnc3c2C)cc1 | 145 °C |
| CCOC(=O)C(=CNc1cscc1OCC)C(=O)OCC | 108 to 109 °C |
| CN1C(=O)[C@H](NC(=O)/C=C/c2c(Cl)cccc2Cl)N=C(c2ccccc2)c2ccccc21 | 121 to 124 °C |
| Cc1cc(-c2c(F)cc3c(=O)c(C(=O)O)cn(C4CC4)c3c2F)cc(C)n1 | 246 to 248 °C |
| CNC(=O)[C@@H]1CCC[C@@H]1Nc1nc(Nc2cc3c(cc2OC)CCN(CC(=O)N(C)C)CC3)ncc1Cl (relative stereo) | 240 °C |
| CCOCc1nc2c(N)nc3cc(OCc4nccn4C)ccc3c2n1CC(C)(C)O | 200 to 202 °C |
| CSc1ccc2c(c1)Cc1ccc(C(=O)O)cc1O2 | 266 to 267 °C |

| Compound | melting point |
| --- | --- |
| Cc1ccc([C@@H]2Sc3cc(COC(c4ccccc4)(c4ccccc4)c4ccccc4)ccc3N(CCN(C)C)C(=O)[C@@H]2O)cc1 | 110 to 114 °C |
| NC(=O)C(Nc1ccc(Cl)cc1)c1c(Cl)ccc(N)c1Cl (stereo not given) | 232 °C |
| CCOC(=O)Nc1cccc(Nc2c3cccc(C)c3nc3c(C(=O)NCCN(C)C)cccc23)c1C | 182 to 183 °C |
| O=C1CCc2cc(Oc3ccc(F)cc3F)c([N+](=O)[O-])cc21 | 145 °C |
| c1ccc2cc(CN3CCN(c4nccs4)CC3)ccc2c1 | 83 to 84 °C |
| CC(CC(N)=O)(c1ccc(O)cc1)c1ccc(O)cc1 | 216 °C |
| O=C1CNc2ncc(I)cc2N1Cc1ccccc1OC(F)(F)F | 235 °C |
| COc1ccc(-c2c(CO)c(CO)c3sc4ccccc4n23)cc1 | 156 to 157 °C |
| CCN(CC)C(=O)c1[nH]c2ccccc2c1CN(Cc1cc(C(F)(F)F)cc(C(F)(F)F)c1)c1nnn(C)n1 | 98 °C |
| Cc1n[nH]c(Cn2ccnc2C)c1Oc1cc(Cl)cc(C#N)c1 | 212 to 214 °C |
| Cc1c(N)c2c(c3c1C(c1ccc(C(C)C)cc1)CO3)CCC2 (stereo not given) | 112 to 113 °C |
| Cc1ccc(-c2cn(C)cc(-c3cccc(C(F)(F)F)c3)c2=O)c(C)c1 | 128 to 131 °C |
| O=C1Nc2ccc(F)nc2N2CCNCC12 (stereo not given) | 305 to 308 °C |
| CC1(C)C2CCC(C2)C1CCC(O)CCC1C2CCC(C2)C1(C)C (stereo not given) | 55 to 56 °C |
| Cc1c([N+](=O)[O-])ccnc1CSc1nc2ccc(C(F)(F)F)cc2[nH]1 | 192 to 193 °C |
| Nc1cccc(Cn2c(-c3ccc(NC(=O)c4cccc(Br)c4)cc3)ccc2-c2ccccc2Cl)n1 | 116 to 122 °C |
| O=C1CCC(=O)N1Cc1nc2sc3c(c2c(-c2ccc(OCc4ccccc4)cc2)c1Cl)CCNC3 | 247 to 248 °C |
| CCOC(=O)c1cc(O)c2nc(C3CC3)n(C)c2c1 | 201 to 202 °C |
| CCCCCCN(C[C@@H]1CCCC[C@H]1CN(CCCCCC)C(=O)Nc1ccc(N(C)C)cc1)C(=O)Nc1ccc(N(C)C)cc1 (relative stereo) | 112 to 117 °C |
| CCN(CC)CCCNc1ncc2cc(-c3c(Cl)cccc3Cl)c(NC(=O)NC(C)C)nc2n1 | 88 to 100 °C |
| O=C(O)C1=Cc2cc(Cl)ccc2OC1C(F)(F)F (stereo not given) | 181 to 184 °C |
| CCCC[C@@H](C)C(C(=O)O)C(=O)O | 123 °C |
| CS(=O)(=O)c1ccc(-c2cc(C(F)(F)F)nn2-c2ccc(CO)cc2)cc1 | 129 to 133 °C |
| COC(=O)C1=C(C)NC(C)=C(C(=O)OCCN2CCN(c3cccc(Cl)c3Cl)CC2)C1c1cccc([N+](=O)[O-])c1 (stereo not given) | 189 to 190 °C |

| Compound | melting point |
| --- | --- |
| O=c1[nH]c2cc(Cl)c(S(=O)CCN3CCC(Cc4ccc(F)cc4)CC3)cc2o1 (stereo not given) | 199 to 200 °C |
| Cc1ccccc1NC(=O)c1ccccc1[Si](C)(C)C | 117 to 119 °C |
| COC(=O)CCCc1cc2nc(Cl)ccc2n1S(=O)(=O)c1c(F)cccc1F | 107 to 109 °C |
| CC12CCCC1C1CCc3cc(F)ccc3C1CC2 (stereo not given) | 178 °C |
| CCN(CC)c1ccc2nc3c4ccccc4c(=Nc4ccccn4)cc-3oc2c1 | 169 to 170 °C |
| CC(C)(C)c1ccc(CCOc2ncnc3nccnc23)cc1 | 149 °C |
| O=C(O)c1ccccc1COc1cccc(Cl)c1 | 154 to 155 °C |
| N#CCCn1c(=O)n(C2CCN(CCNC(=O)c3ccc(F)cc3)CC2)c2ccccc21 | 172 °C |
| O=C(Nc1nc2ccc(Sc3cnc4ncc(NCc5ccccc5)cn34)cc2s1)C1CC1 | > 260 °C |
| O=C(c1ccc(F)cc1C(F)(F)F)N1Cc2cccn2Cc2ccccc21 | 154 to 155 °C |
| O=C(Nc1ccc2[nH]cnc2c1)C(=O)N1CCC(Cc2ccccc2)CC1 | 85 to 87 °C |
| CCCn1c(COC)nc2c(N)nc3ccc(OCCCN4CCN(c5ccccn5)CC4)cc3c21 | 196 to 197 °C |
| COC(=O)c1cc([N+](=O)[O-])c(N)c(F)c1F | 184 °C |
| COC(=O)Nc1ccc(NC(=O)CN(C)C)c([N+](=O)[O-])c1 | 186 to 189 °C |
| N#CC1=C(C2CCNCC2)Nc2n[nH]cc2C1c1cccc2nonc12 (stereo not given) | 216 °C |
| COC(=O)NCc1cc(C(C)=NOCc2ccc(F)cc2)ccc1Cl | 101 to 103 °C |
| Nn1cc(C(=O)O)c(=O)c2cc3c(cc21)OCO3 | 309 to 313 °C |
| CONC(NC(C)=O)C(=O)NCc1ccccc1 (stereo not given) | 95 to 97 °C |
| CC(C)(C)C1=CC(=Cc2ccc([N+](=O)[O-])cc2)C=C(C(C)(C)C)C1=O | 162 to 163 °C |
| O=C(O)CCC1COc2ccccc2O1 (stereo not given) | 102 °C |
| O=C(CCCCNC(=O)c1cn2c3c(cccc13)CCC2)NO | 179 to 181 °C |
| Cc1ccccc1-c1ccc(C(=O)N2Cc3ccc(C(=O)NCCc4ccc(O)cc4)n3Cc3ccccc32)cc1C | 129 to 131 °C |
| CCOC(=O)C(C)(CCCN(C)CCc1ccc(OC)c(OC)c1)c1ccc(OC)c(OC)c1 (stereo not given) | 118 to 121 °C |
| O=C1CCC(N2Cc3c(OCc4ccc(S(=O)(=O)N5CCOCC5)cc4)cccc3C2=O)C(=O)N1 (stereo not given) | 308 to 310 °C |

| Compound | melting point |
| --- | --- |
| COc1ccc(C=C2CCc3cc(OCCn4ccnc4)ccc3C2=O)cc1 | 132 to 133 °C |
| COCOC1CCN(c2ccc(NC(=O)c3cnn(-c4ccc(Cl)cc4)c3C)cc2C#N)CC1 | 186 to 188 °C |
| COC(=O)CCC(=O)c1cc(NC(C)=O)ccc1OCC(O)CNC(C)(C)C (stereo not given) | 127 to 128 °C |
| Nc1c(Br)cc(C2=NNC(=O)CC2)cc1Br | 212 to 214 °C |
| CN(Cc1ccccc1)[C@@H](CC(N)=O)C(=O)N[C@@H](Cc1ccccc1)[C@H](O)C(=O)N1CCC[C@H]1C(=O)NC(C)(C)C | 97 to 100 °C |
| CCOC(=O)C(=O)Nc1ccc(-n2ccnc2)cc1 | 177 to 180 °C |
| O=c1[nH]nc(-c2ccccc2Nc2cccc(C(F)(F)F)c2)s1 | 157 to 160 °C |
| FC(F)(F)c1cccc(CCc2nnc(-c3ccc4ncoc4c3)o2)c1 | 117 to 118 °C |
| CN(C)c1cc(Cl)c2c(c1)NC(=O)C(C)(c1ccccc1)C2=O (stereo not given) | 224 to 226 °C |
| Nc1ccc(CS(=O)(=O)NCc2ccccc2)cc1 | 117 to 118 °C |
| Nc1ccc(-n2cc(C(=O)O)c(=O)cc2-c2ccc3ccccc3c2)cc1 | 148 to 151 °C |
| Cc1c(Cc2ccccc2)c(=O)n(C2CCCC2)c2nc(Nc3ccc(N4CCNCC4)cc3)ncc12 | 114 °C |
| COc1ccc(N2CCN(n3ccnc3SC)CC2)cc1 | 140 °C |
| O=C1c2c(Cl)cccc2-n2cnc(-c3noc(CN4CCCCC4)n3)c2[C@@H]2CCN12 | 177 to 179 °C |
| Cc1c(NC(=O)NC(C)(C)CO)c(C)c2c(c1-c1ccccc1)OCC2c1ccc(C(C)C)cc1 (stereo not given) | 181 to 182 °C |
| ClCCCCOc1cccc(OCCCCCl)c1 | 85 to 86 °C |
| COC(=O)c1[nH]c(=O)n(C(=O)NCCCN2CCC(C(=O)OC)(c3ccccc3)CC2)c1-c1ccc(F)c(F)c1 | 134 to 136 °C |
| N#Cc1ccc(NC(=O)c2ccccc2SSc2ccccc2C(=O)Nc2ccc(C#N)cc2)cc1 | 239 to 241 °C |
| O=C(NCCc1ccccc1)c1ccccc1-c1ccccc1CNS(=O)(=O)c1cccc([N+](=O)[O-])c1 | 145 °C |
| CCNc1cccnc1N1CCN(C(=O)c2ccc(C(=O)OC)cn2)CC1 | 80 to 81 °C |
| CN(C)c1ccc(C(=O)N2CCN(CCc3ccc(Cl)cc3)CC2)cc1 | 133 to 134 °C |
| COC(=O)COc1ccc2c(O)c(C(C)=O)ccc2c1 | 118 to 120 °C |
| Nn1c(=O)cc2n(C3CC3)c3cc(N4CCNCC4)c(F)cc3n2c1=O | 232 to 234 °C |
